Starred links: 1 amine or outer side, 2 acyl side, 3 side chain; linkers in the order of their positions; H or OH if unused. Positions of bridges follow the written chain, without caps; N, C: chain ends. Non-standard residues stand in square brackets, D forms with d. Residues, ends and D or L forms follow the SMILES beside them. Chains are numbered I, II in the order given. Actinocin(9to1) = Cc1c2oc3c(C)ccc(C(=O)[*:1])c3nc-2c(C(=O)[*:2])c(N)c1=O; NMeV = CN[C@H](C(=O)O)C(C)C; Nle = CCCC[C@H](N)C(=O)O; Sar = CNCC(=O)O
The compounds below were run on HeLa (human cancer) cells (assay: Cytological dose-response profiling by automated fluorescence microscopy (KS statistic z-scores, 93 descriptors)). Conditions: HeLa cells, 20 hrs, thirteen 3-fold dilutions; Y = profile response above signal threshold.
Format: cell-based
Protocol: The known drug set was chosen to cover common mechanisms of toxicity or therapeutic action in cancer and other diseases, and to include several groups with a common target (macromolecule or pathway) but unrelated structures. We analyzed thirteen 3-fold dilutions of each drug, covering a final concentration range on cells from micromolar to picomolar. (Table 3 and Materials & Methods). HeLa (human cancer) cells were cultured in 384-well plates to near confluence, treated with drugs for 20 hrs, fixed, and stained with fluorescent probes for various cell components and processes. We chose 11 distinct probes that covered a range of cell biology, multiplexing a DNA stain and two antibodies per well (the probe sets are: (SC35, anillin), (α-tubulin, actin), (phospho-p38, phospho-ERK), (p53, cFos), (phospho-CREB, calmodulin)). Using automated fluorescence microscopy, we collected images of up to ˜8000 cells from each well. 26 wells on each plate were treated only with DMSO to generate a control population. The experiment was performed twice in parallel to provide a replicate dataset. Image segmentation procedures were used to automatically identify nuclei and nuclear organelles, and cytoplasmic regions were approximated as an annulus surrounding each identified nucleus (FIG. 31A). For each cell, region, and probe, a set of descriptors was measured. These included measures of size, shape, and intensity, as well as ratios of intensities between regions (93 descriptors total, Table S3).
For profiling studies, it is useful to reduce each population of descriptor values to a single number. […] We devised a measure based on the Kolmogorov-Smirnov (KS) statistic, allowing nonparametric comparison of experimental and control distributions from the same plate (FIGS. 31B and 35). […] In particular, the relationship between z-score and the original physical measure may be non-linear.
Cell culture. 20 hours before compound addition, Hela cells grown in […] dishes were trypsinized, resuspended in DMEM supplemented with 10% FCS and 10 ug/mL penicillin/streptomycin, and plated in 384-well plates at an initial density of 3,000 cells per well, 40 uL per well. Compounds were purchased from Sigma (St. Louis, MO), Calbiochem (EMD Biosciences, San Diego, Calif.) and Tocris (Elliksville, MO) and are listed in Table 2. Compound stocks were prepared in DMSO and then arrayed on 384-well plates in 16 consecutive 1:3 serial dilutions in DMSO as outlined in Table 3. The highest and two lowest dilutions (rows A, 0 and P) were not used for subsequent analysis as the wells due to persistent edge effects, leaving us with a series of 13 dilutions. Each stock was diluted 16-fold in warmed culture medium, and 8 μl of this solution was added to the plated cells, resulting in a 96-fold final dilution. All conditions were performed in duplicate in separate plates. Cells were incubated at 37° C. for 20 hours, then fixed in 3% formaldehyde in PBS. All liquid handling was performed using a programmed TekBench (TekCel, Hopkinton, Mass.).
Markers. Five sets of markers were stained by standard immunofluorescence methods in this study.
With `CNc1ccc2oc(C[C@H]3O[C@@]4(CC[C@H]3C)O[C@H]([C@H](C)C(=O)c3ccc[nH]3)[C@H](C)C[C@H]4C)nc2c1C(=O)O` [Compound 2, A23187 free acid] the “Used in clustering (FIG. 33)” value was “Y”.
In the case of `Cc1c2oc3c(C)ccc(C(=O)N[C@@H]4C(=O)N[C@H](C(C)C)C(=O)N5CCC[C@H]5C(=O)N(C)CC(=O)N(C)[C@@H](C(C)C)C(=O)O[C@@H]4C)c3nc-2c(C(=O)N[C@@H]2C(=O)N[C@H](C(C)C)C(=O)N3CCC[C@H]3C(=O)N(C)CC(=O)N(C)[C@@H](C(C)C)C(=O)O[C@@H]2C)c(N)c1=O` [Compound 4, Actinomycin D] (I: T[dV]P[Sar][NMeV] / II: T[dV]P[Sar][NMeV]; ester I:1-I:C, II:1-II:C; linker I:N-II:N via Actinocin(9to1)), the “Used in clustering (FIG. 33)” value is reported as “Y”.
In the case of `CCCC[C@@H](C=O)NC(=O)[C@H](CC(C)C)NC(=O)[C@H](CC(C)C)NC(C)=O` [Compound 5, N-acetyl-Leu-Leu-norleucinal] (Ac-Leu-Leu-[Nle]-aldehyde), the “Used in clustering (FIG. 33)” value is reported as “Y”.
In the case of `O=C1Cc2c([nH]c3ccc([N+](=O)[O-])cc23)-c2ccccc2N1` [Compound 6, Alsterpaullone], the “Used in clustering (FIG. 33)” value is reported as “Y”.
In the case of `COc1ccc(C[C@H]2NC[C@H](O)[C@H]2OC(C)=O)cc1` [Compound 7, Anisomycin], the “Used in clustering (FIG. 33)” value is reported as “Y”.
With `C[C@H]1CCC/C=C/[C@@H]2C[C@H](O)C[C@H]2[C@H](O)/C=C/C(=O)O1` [Compound 8, Brefeldin A] the “Used in clustering (FIG. 33)” value was “Y”.
`COc1cc2c(c(OC)c1OC)-c1ccc(OC)c(=O)cc1[C@@H](NC(C)=O)CC2` [Compound 13, Colchicine] was tested, and the “Used in clustering (FIG. 33)” value was “Y”.
In the case of `C[C@@H]1C[C@@H]([C@H](O)CC2CC(=O)NC(=O)C2)C(=O)[C@@H](C)C1` [Compound 14, Cycloheximide], the “Used in clustering (FIG. 33)” value is reported as “Y”.
`C=C1[C@@H](C)[C@H]2[C@H](Cc3ccccc3)NC(=O)[C@]23[C@H](OC(C)=O)/C=C/[C@@](C)(O)C(=O)[C@@H](C)C/C=C/[C@H]3[C@@H]1O` [Compound 16, Cytochalasin D] was tested, and the “Used in clustering (FIG. 33)” value was “Y”.
In the case of `C[C@@H]1C[C@H]2[C@@H]3CCC4=CC(=O)C=C[C@]4(C)[C@@]3(F)[C@@H](O)C[C@]2(C)[C@@]1(O)C(=O)CO` [Compound 19, Dexamethasone], the “Used in clustering (FIG. 33)” value is reported as “Y”.
In the case of `COc1cccc2c1C(=O)c1c(O)c3c(c(O)c1C2=O)C[C@@](O)(C(=O)CO)C[C@@H]3O[C@H]1C[C@H](N)[C@H](O)[C@H](C)O1` [Compound 20, Doxorubicin], the “Used in clustering (FIG. 33)” value is reported as “Y”.
For `Cc1cc(O)c2c(c1)C(=O)c1cc(O)cc(O)c1C2=O` [Compound 22, Emodin], the “Used in clustering (FIG. 33)” value was “Y”.
With `O=C1Nc2ccccc2/C1=C1/Nc2ccccc2/C1=N\O` [Compound 32, Indirubin monoxime] the “Used in clustering (FIG. 33)” value was “Y”.
In the case of `C/C1=C\[C@H](C)C[C@H](C)OC(=O)C[C@H](c2ccc(O)cc2)NC(=O)[C@@H](Cc2c(Br)[nH]c3ccccc23)N(C)C(=O)[C@H](C)NC(=O)[C@@H](C)C1` [Compound 34, Jasplakinolide], the “Used in clustering (FIG. 33)” value is reported as “Y”.
`C/C1=C/C(=O)O[C@@H]2C[C@@H](CC[C@H](C)/C=C\CC1)O[C@@](O)([C@@H]1CSC(=O)N1)C2` [Compound 36, Latrunculin B] was tested, and the “Used in clustering (FIG. 33)” value was “Y”.
`CC[C@H](C)C(=O)O[C@H]1CCC=C2C=C[C@H](C)[C@H](CC[C@@H]3C[C@@H](O)CC(=O)O3)[C@H]21` [Compound 37, Mevastatin] was tested, and the “Used in clustering (FIG. 33)” value was “Y”.
`CCOC(=O)C1=C(C)NC(=S)NC1c1cccc(O)c1` (centres unmarked) [Compound 39, Monastrol] was tested, and the “Used in clustering (FIG. 33)” value was “Y”.
With `C=C1[C@@H](O)[C@@H]2O[C@]3(CC[C@H](/C=C/[C@@H](C)[C@@H]4CC(C)=C[C@@]5(O[C@H](C[C@@](C)(O)C(=O)O)CC[C@H]5O)O4)O3)CC[C@H]2O[C@@H]1[C@@H](O)C[C@H](C)[C@H]1O[C@@]2(CCCCO2)CC[C@H]1C` [Compound 41, Okadaic acid] the “Used in clustering (FIG. 33)” value was “Y”.
For `CCCCCCCCCCCCCC(=O)O[C@@H]1[C@@H](C)[C@@]2(O)[C@@H](C=C(CO)C[C@]3(O)C(=O)C(C)=C[C@@H]23)[C@@H]2C(C)(C)[C@]12OC(C)=O` [Compound 43, PMA], the “Used in clustering (FIG. 33)” value was “Y”.
`COc1cc([C@@H]2c3cc4c(cc3[C@H](O)[C@H]3COC(=O)[C@H]23)OCO4)cc(OC)c1OC` [Compound 44, Podophyllotoxin] was tested, and the “Used in clustering (FIG. 33)” value was “Y”.
With `COc1ccc(C[C@H](N)C(=O)N[C@H]2[C@@H](O)[C@H](n3cnc4c(N(C)C)ncnc43)O[C@@H]2CO)cc1` [Compound 45, Puromycin] the “Used in clustering (FIG. 33)” value was “Y”.
With `CC1=C(/C=C/C(C)=C/C=C/C(C)=C/C(=O)O)C(C)(C)CCC1` [Compound 48, Retinoic acid (trans)] the “Used in clustering (FIG. 33)” value was “Y”.
In the case of `CN[C@@H]1C[C@H]2O[C@@](C)([C@@H]1OC)n1c3ccccc3c3c4c(c5c6ccccc6n2c5c31)C(=O)NC4` [Compound 51, Staurosporine], the “Used in clustering (FIG. 33)” value is reported as “Y”.
`CC(=O)O[C@H]1C(=O)[C@@]2(C)[C@H]([C@H](OC(=O)c3ccccc3)[C@]3(O)C[C@H](OC(=O)[C@H](O)[C@@H](NC(=O)c4ccccc4)c4ccccc4)C(C)=C1C3(C)C)[C@]1(OC(C)=O)CO[C@@H]1C[C@@H]2O` [Compound 53, Taxol] was tested, and the “Used in clustering (FIG. 33)” value was “Y”.
With `CC(/C=C/C(=O)NO)=C\[C@@H](C)C(=O)c1ccc(N(C)C)cc1` [Compound 54, Trichostatin] the “Used in clustering (FIG. 33)” value was “Y”.
With `CC[C@]1(O)C[C@@H]2CN(CCc3c([nH]c4ccccc34)[C@@](C(=O)OC)(c3cc4c(cc3OC)N(C)[C@H]3[C@@](O)(C(=O)OC)[C@H](OC(C)=O)[C@]5(CC)C=CCN6CC[C@]43[C@@H]65)C2)C1` [Compound 57, Vinblastine] the “Used in clustering (FIG. 33)” value was “Y”.
`CN(C)CCCN1c2ccccc2Sc2ccc(Cl)cc21` [Compound 62, Chloropromazine] was tested, and the “Used in clustering (FIG. 33)” value was “Y”.
For `COc1cccc(-c2cc(=O)c3ccccc3o2)c1N` [Compound 63, PD98059], the “Used in clustering (FIG. 33)” value was “Y”.
With `CN1CCN(C2=Nc3cc(Cl)ccc3Nc3ccccc32)CC1` [Compound 64, Clozapine] the “Used in clustering (FIG. 33)” value was “Y”.
With `CCC(C)(C)C(=O)O[C@H]1C[C@@H](C)C=C2C=C[C@H](C)[C@H](CC[C@@H]3C[C@@H](O)CC(=O)O3)[C@H]21` [Compound 70, Simavastatin] the “Used in clustering (FIG. 33)” value was “Y”.
For `CCC(=O)CCCCC[C@@H]1NC(=O)[C@H]2CCCCN2C(=O)[C@H]([C@@H](C)CC)NC(=O)[C@H](Cc2cn(OC)c3ccccc23)NC1=O` [Compound 76, Apicidin], the “Used in clustering (FIG. 33)” value was “Y”.
`C/C(=C\c1csc(C)n1)[C@@H]1C[C@@H]2O[C@]2(C)CCC[C@H](C)[C@H](O)[C@@H](C)C(=O)C(C)(C)[C@@H](O)CC(=O)O1` [Compound 77, Epothilone B] was tested, and the “Used in clustering (FIG. 33)” value was “Y”.
With `NS(=O)(=O)c1ccc(-n2nc(C(F)(F)F)cc2-c2ccc(Cl)cc2)cc1` [Compound 79, SC236] the “Used in clustering (FIG. 33)” value was “Y”.
`C[S+]([O-])c1ccc(-c2nc(-c3ccncc3)c(-c3ccc(F)cc3)[nH]2)cc1` (centres unmarked) [Compound 80, SB203580] was tested, and the “Used in clustering (FIG. 33)” value was “Y”.
With `C[C@@]1(CO)[C@H](O)CC[C@@]2(C)[C@H]1CC[C@H]1C[C@@H]3C[C@@]12CC[C@]3(O)CO` [Compound 81, Aphidicolin] the “Used in clustering (FIG. 33)” value was “Y”.
For `CN(Cc1cnc2nc(N)nc(N)c2n1)c1ccc(C(=O)N[C@@H](CCC(=O)O)C(=O)O)cc1` [Compound 83, Methotrexate], the “Used in clustering (FIG. 33)” value was “Y”.
In the case of `CC[C@H]1/C=C/C=C/C[C@@H](C)[C@H](O)[C@@](C)(O)C(=O)[C@@H](C)[C@H](O)[C@@H](C)C(=O)[C@@H](C)[C@H](O)[C@@H](C)/C=C/C(=O)O[C@@H]2[C@H](C)[C@H](CC1)O[C@]1(CC[C@H](C)[C@H](C[C@@H](C)O)O1)[C@H]2C` [Compound 90, Oligomycin], the “Used in clustering (FIG. 33)” value is reported as “Y”.
With `COC(=O)Nc1nc2ccc(C(=O)c3cccs3)cc2[nH]1` [Compound 91, Nocodazole] the “Used in clustering (FIG. 33)” value was “Y”.
In the case of Amanitin [Compound 3], the “Used in clustering (FIG. 33)” value is reported as “Y”.
In the case of Oxamflatin [Compound 78], the “Used in clustering (FIG. 33)” value is reported as “Y”.
With Tunicamycin [Compound 55] the “Used in clustering (FIG. 33)” value was “Y”.

— patent US20060154236A1, “Computer-assisted analysis” (priority 2004, published 2006)
